Each structure is given as a SMILES string.

Here are results for 1 compound from patent publication US20230190852A1, “COMPOSITIONS AND METHODS FOR JOINT HEALTH” (Unigen, Inc., priority 2013, published 2023).

The assay has as its system Sprague-Dawley (SD) rats. Briefly: Monosodium iodoacetate (MIA) induced osteoarthritis rat model. The format is in vivo. The settings on record: for reduction in pain sensitivity: 10 mg/kg oral per day; for Pain sensitivity, % (of week 0 mean) / Pain sensitivity, Mean: oral 10 mg/kg.
[1] abbreviates: MIA OA rats, 10 mg/kg oral, 6 weeks, modified Mankin scoring.

Method: The animals were randomized and assigned to treatment groups before the study began. After anesthetization with isoflurane, rats were injected with 50 μl containing 1 mg Monosodium iodoacetate (Sigma, St. Louis, Mo.; lot #SLBB6147V) using a 26 gauge needle inserted through the patellar ligament into the intra-articular space of the right knee. Normal rats were injected with an equivalent volume of saline instead of MIA. […] The first sample treatment was administered 1 hr before MIA injection. Normal and control rats were given orally an equal volume of vehicle (0.5% CMC in saline). Body weight and allodynia were measured once a week for 4 weeks. Allodynia was evaluated by measuring responsiveness to a tip of Randall-Selitto test (2390 series, IITC, Woodland Hills, Calif.) applied perpendicular to the central plantar surface of the right hind paw.
Male Sprague—Dawley (SD) rats weighing about 170 to about 230 g (6 weeks of age) were purchased and acclimated for one week. […] Each group was orally gavaged with their respective treatment. Anesthetized rats were injected with 0.8 mg of MIA in a 50 μl saline solution into the intra-articular pocket one hour after the second dose of treatments. Pain sensitivity was measured once a week using a Randall-Salitto meter and treatment lasted for 6 weeks. Body weights were measured once a week to calculate the respective weekly dosage of each group.

For `O=C(O)Cc1ccccc1Nc1c(Cl)cccc1Cl` [Diclofenac], the “reduction in pain sensitivity” value is, setting by setting: (week 5) 20.8%; (week 6) 18.2%. Also, the “articular cartilage matrix integrity, total Mankin score vs. vehicle” value (G:M 500 mg/kg, Diclofenac 10 mg/kg, 6 weeks) is given as “not statistically significant”. The “Total Mankin Score” value (MIA OA rats, 10 mg/kg oral, 6 weeks) came to 4.9 ± 2.69. In addition, under setting [1], the “Cellular Abnormality (0-3) histopathological score” value was 1.3 ± 0.67. Besides, under setting [1], the “Safranin-O Staining (0-4) histopathological score” value turned out to be 1.7 ± 0.82. In addition, the “Pain sensitivity, % (of week 0 mean)” value is, setting by setting: (MIA OA rats, Week 0) 100.00%; (MIA OA rats, Week 1) 84.51%; (MIA OA rats, Week 2) 89.88%; (MIA OA rats, Week 3) 94.05%; (MIA OA rats, Week 4) 87.12%; (MIA OA rats, Week 5) 84.43%. Where the note is “MIA OA rats, Week 6”, the “Pain sensitivity, % (of week 0 mean)” value turned out to be 83.28%. The “Pain sensitivity, Mean” value (MIA OA rats, Week 0, Randall-Salitto meter) was found to be 173.20; the “Pain sensitivity, Mean” value (MIA OA rats, Week 1, Randall-Salitto meter) is listed as 146.37; the “Pain sensitivity, Mean” value (MIA OA rats, Week 2, Randall-Salitto meter) is on record as 155.67; the “Pain sensitivity, Mean” value (MIA OA rats, Week 3, Randall-Salitto meter) stood at 162.90; the “Pain sensitivity, Mean” value (MIA OA rats, Week 4, Randall-Salitto meter) is listed as 150.90; the “Pain sensitivity, Mean” value (MIA OA rats, Week 5, Randall-Salitto meter) was 146.23. Further, the “Pain sensitivity, Mean” value (MIA OA rats, Week 6, Randall-Salitto meter) came out at 144.23.
